Experimental findings from PMC10778758, “Dithioethanol (DTE)-Conjugated Deoxyribose Cyclic Dinucleotide Prodrugs (DTE-dCDNs) as STING Agonist” (International Journal of Molecular Sciences, 2023) are described below.

Each structure is given as a SMILES string.

Series [1] is described as follows: In vitro serum stability assay in 20% fetal bovine serum. The format is in vitro ADME. To be noted: 100 μM, 20% FBS, 37 °C. As to the method: In vitro serum stability assay. Each compound (100 μM) was incubated at 37 °C in the reaction buffer including 20% fetal bovine serum (FBS, GIBCO, Thermo Fisher Scientific, Waltham, MA, USA), 10 mM PBS (pH 7.4), and 1 mM MgCl2. At various times, aliquots of the reaction mixture were collected and stopped by adding 50 μL MeCN and diluted with 50 μL water. The reaction mixture was then centrifuged at 10,000 rpm for 5 min, leaving 100 μL supernatant for the HPLC assay. An amount of 10 μL of each aliquot was injected directly into HPLC (Agilent 1260 Infinity HPLC equipped with a UV detector; column Agilent ZORABX SB-C18 5 μm [4.6 × 150 mm; detection at 254 nm; column temperature 25 °C] for analysis. Amounts of 10 mM TEAA buffer (solvent A) and MeCN (solvent B) were used as the mobile phase with a flow rate of 1 mL/min. The gradient was set as the following: 0–2 min: 98% A/2% B; 2–6 min: 98% A/2% B to 100% B; 6–10 min: 100% B; 10–13 min: 100% B to 98% A/2% B; 13–15 min: 98% A/2% B. The % remaining of the test compounds after incubation in the serum was then calculated.
Figure 4 Parent dCDN of DTE-dCDN prodrug 9 retained a high serum stability. The serum stability analysis of (a) prodrug 9, (b) 3′,3′-c-di-dAMP, (c) 2′,3′-cGAMP and (d) ADU-S100 were determined in 20% FBS. Each compound (100 μM) was incubated in 20% FBS at 37 °C. At various times (0, 2, 4, 8, 12, 24, 48, 72 h), aliquots of the reaction mixture were analyzed with HPLC at 254 nm. The % remaining of test compounds after incubation in serum was calculated.

The next series deals with THP-1 cells. As to the kind of experiment: Uptake of DTE-dCDN prodrug, intracellular levels by LC/MS/MS. The settings on record: THP-1 cells treated with 100 μM 3′,3′-c-di-dAMP, within 6 h.
Series [2] deals with THP1-Lucia cells. As to the kind of experiment: THP1-Lucia cell-based luciferase reporter assay. To be noted: 24 h. The method, then: THP1-Lucia cell-based reporter assay. THP1-Lucia cells were seeded into a 24-well plate at a density of 5 × 10^4 cells/well. […] Finally, the medium was collected to determine the luciferase activity using QUANTI-Luc (InvivoGen, San Diego, CA, USA) according to the manufacturer′s instruction to calculate the EC50 values of the tested compounds. The results are expressed as the mean ± SD from three independent experiments. Emax values were normalized to the response induced by 2′,3′-cGAMP in each assay and expressed as a mean percentage ± SD from three independent experiments. The THP1-Lucia cell line was obtained from Prof. Junmin Quan from Peking University (Beijing, China).
Figure 5 The luciferase-based assay in the THP1-Lucia reporter cell line. (a) EC50 values represent the mean (±SD) of three independent experiments. (b) Emax values represent the mean (±SD) of three independent experiments.

Another series deals with CT-26 cells. Put plainly: RT-qPCR of IFN-β mRNA in CT-26 cells. The settings on record: CT-26, prodrug 9 and ADU-S100 10 μM, CDNs 100 μM, 4 h. The class given is cell-based. The method, then:
Real-time quantitative PCR (RT-qPCR). The mRNA expression levels of diverse cytokines were measured using quantitative RT-PCR (RT-qPCR) assays. THP-1 cells or CT26 cells were incubated with the compounds for 4 h, subsequently harvested for RNA isolation according to the manufacturer’s instructions of RNApure Tissue&Cell Kit (DNase I) (CWBIO, Cambridge, MA, USA catalogue no. CW0560S). Next, 1 μg RNA was reversely transcribed to cDNA by TransScript All-in-One First-Strand cDNA Synthesis SuperMix for qPCR (One-Step gDNA Removal) (TransGen, Beijing, China). To examine the mRNA levels, real-time PCR was performed in a CFX96 Real-Time PCR system (Bio-RAD, Hercules, CA, USA) using PerfectStart Green qPCR Super Mix (TransGen) and primers (Sangon Biotech, Shanghai, China). The expression level was calculated according to the formula (2^−∆∆Ct) using the GAPDH or β-actin as the internal reference gene and the relative gene expression fold was normalized to the DMSO-treated cells. The THP-1 and CT26 cell lines were obtained from American Type Culture Collection (ATCC, Manassas, VA, USA). […]
expression levels of IFN-β were assessed by real-time quantitative PCR (qPCR) under the treatment of prodrug 9 (10 μM), 3′,3′-c-di-dAMP (100 μM), 2′,3′-cGAMP (100 μM) and ADU-S100 (10 μM) for 4 h.
Figure S3. […]
levels of IFN-β were assessed by an enzyme-linked immunosorbent assay (ELISA). […]

For series [3], the system named is THP1-Lucia cells. As to the kind of experiment: Luciferase activity in THP1-Lucia cells pretreated with STING or TBK1 inhibitor. To be noted: inhibitor 10 μM pretreated 1 h, prodrug 9 10 μM, 24 h. The class given is cell-based. As to the method:
The endogenous 2′,3′-cGAMP was set as the positive control group. H-151 [26] and BX795 [27] were selected to use as the STING inhibitor and TBK1 inhibitor, respectively.
Figure 6 Prodrug 9 activated the IFN-β promoter responsive luciferase expression through STING signaling pathway. Prodrug 9 (10 μM) and 2′,3′-cGAMP (10 μM) were added to THP1-Lucia cells alone or pretreated with vehicle or H-151 (10 μM), BX795 (10 μM) for 1 h, respectively. The luciferase activity was measured with Quanti-Luc reagent via a 24 h incubation at 37 °C. Data are presented as mean ± SD, n = 3.

Method for THP-1 cells: Uptake of DTE-dCDN Prodrug. THP-1 cells were seeded at a concentration of 5 × 10^6 cells/mL into a 12-well plate. After 16 h of incubation at 37 °C in a 5% CO2 atmosphere, the compounds were added to cell cultures and the cells were collected at time points of 1 h, 2 h, 4 h, 6 h, 8 h, 12 h, and 24 h by centrifugation for 1 min at 1000× g. The media was removed completely, and the cells were washed twice with 800 μL of ice-cold PBS before being lysed with 400 μL ice-cold 70% methanol. Lysates were incubated overnight at −20 °C and then centrifuged for 20 min at 13,000× g to remove cellular debris. The supernatant was analyzed via LC/MS/MS (Agilent 1290 Infinity II/6470A)
(a) The intracellular concentration of the prodrug 9 in THP-1 cells. (b) The intracellular concentration of the parent dCDN (3′,3′-c-di-dAMP) in THP-1 cells. THP-1 cells were treated with 10 μM prodrug 9 or 100 μM parent dCDN (3′,3′-c-di-dAMP) for the indicated period of time (1, 2, 4, 6, 8, 12, 24 h), and the intracellular concentration of the metabolites in cellular extracts was determined with liquid chromatograph MS/MS analysis.

On to `Nc1nc2c(ncn2[C@@H]2O[C@@H]3COP(=O)(O)O[C@H]4[C@@H](O)[C@H](n5cnc6c(N)ncnc65)O[C@@H]4COP(=O)(O)O[C@@H]2[C@@H]3O)c(=O)[nH]1` [2′,3′-cGAMP], for which, in series [1], the “T1/2 (half-life period)” value came to 31 h and the “degraded at 72 h” value turned out to be 80%.

In general, EC50 refers to the midpoint of the concentration-response curve. The low end stands for higher potency in that assay, the high end for lower potency in that assay. Take `Nc1ncnc2c1ncn2[C@H]1C[C@@H]2OP(=O)(O)OC[C@H]3O[C@@H](n4cnc5c(N)ncnc54)C[C@@H]3OP(=O)(O)OC[C@H]2O1` [3′,3′-c-di-dAMP]: in the series on THP-1 cells, the “intracellular levels of the parent dCDN 3′,3′-c-di-dAMP” value is on record as “not detectable”. Moreover, the EC50 in the series on THP1-Lucia cells [2] is 41.3 µM. In addition, in series [1], the “T1/2 (half-life period)” value is on record as over 72 h and the “degraded at 72 h” value is “did not show any degradation”.

On to `Nc1ncnc2c1ncn2[C@@H]1O[C@@H]2COP(=O)([S-])O[C@@H]3[C@H](O)[C@@H](COP([O-])(=S)O[C@H]2[C@H]1O)O[C@H]3n1cnc2c(N)ncnc21.[Na+].[Na+]` (stereo partly shown) [ADU-S100, reference compound], for which the “induction of IFN-β transcription in CT-26 cells” value in the series with CT-26 cells is “no significant induction”. Further, the “T1/2 (half-life period)” value in series [1] turned out to be 67 h.

As for `O=C(NCCCNc1nc(Nc2cccc(NC(=O)N3CCCC3)c2)ncc1I)c1cccs1` [BX795], the “effect on induction of luciferase expression by prodrug 9” value in the series on THP1-Lucia cells [3] is given as “could block the induction of the luciferase expression”.

Turning to `CCc1ccc(NC(=O)Nc2c[nH]c3ccccc23)cc1` [H-151], the “effect on induction of luciferase expression by prodrug 9” value with THP1-Lucia cells [3] is reported as “could block the induction of the luciferase expression”.
